Test results published in patent US12698258B2, “Cystine cationic lipids” (Translate Bio, Inc., priority 2019, dated 2026).

System: hEPO protein expression
Experiment: In vivo expression of hEPO after IM injection of lipid nanoparticle formulations with hEPO mRNA
Set-up: species or system BALB/c mice
Details: lipid nanoparticles comprising the compound and hEPO mRNA; single intramuscular injection, 0.1 ug; hEPO in sera by ELISA; 24 hours after administration
Description: In embodiments, cationic lipids described herein can be used in the preparation of lipid nanoparticles according to methods known in the art. For example, suitable methods include methods described in international Publication No. WO 2018/089801, which is hereby incorporated by reference in its entirety.
Lipid nanoparticle formulations comprising human erythropoietin (hEPO) mRNA, Cationic Lipid, DMG-PEG2000, Cholesterol and DOPE were administered intramuscularly to study mRNA delivery and resultant hEPO expression. Male BALB/c mice at 6-8 weeks old are given a single injection of the LNP formulations into the gastrocnemius muscle at a dosage level of 0.1 ug. Blood samples were collected at 6 and 24 hours post-dose. hEPO protein expression levels were measured in the sera samples by ELISA and presented in FIG. 1.

| Structure (SMILES) | in vivo protein production resulting from the delivery of mRNA (FIG. 1) |
| --- | --- |
| CCCCCCCC(C)COC(=O)CCN(CCC(=O)OCCCCCCCC(C)C)[C@@H](CSSC[C@@H](C(=O)OC(C)CN(CCCN(C)C)CCCN(C)C)N(CCC(=O)OCCCCCCCC(C)C)CCC(=O)OCC(C)CCCCCCC)C(=O)OC(C)CN(CCCN(C)C)CCCN(C)C (some centres unmarked) [Compound 3] | high levels of in vivo protein production |
| CCCCCCCC(C)COC(=O)CCN(CCC(=O)OCCCCCCCC(C)C)[C@@H](CSSC[C@@H](C(=O)OCCOCCOCCOC)N(CCC(=O)OCCCCCCCC(C)C)CCC(=O)OCC(C)CCCCCCC)C(=O)OCCOCCOCCOC (some centres unmarked) [Compound 4] | high levels of in vivo protein production |
